Reference: the supplement of paper PMC11061612

Tests used:
Carboplatin = compound: C1CC(C1)(C(=O)[O-])C(=O)[O-].N.N.[Pt+2] [Carboplatin]; conditions: max 10 µM
Outline: (§1)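 Cancer cell lines were plated in 1536-well plates in 7.5 μl of DMEM/F12 or RPMI with 10% FBS and kept 24 hours at 37°C and 5% CO2 before 72 hours of dosing, with final DMSO typically 0.2%. CellTiter-Glo 2.0 luminescence measured viability, scaled between blank-well and DMSO-well means. Dose responses were fitted to a two-parameter logistic curve with a non-linear mixed effects model. This fit gives the single-agent IC50.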

AZD5363 = compound: C1CN(CCC1(C(=O)N[C@@H](CCO)C2=CC=C(C=C2)Cl)N)C3=NC=NC4=C3C=CN4 [AZD5363]; conditions: max 10 µM
Outline: as §1

AZD1775 = compound: C=CCn1c(=O)c2cnc(Nc3ccc(N4CCN(C)CC4)cc3)nc2n1-c1cccc(C(C)(C)O)n1 [AZD1775]
Outline: as §1

Trametinib = compound: CC(=O)Nc1cccc(-n2c(=O)n(C3CC3)c(=O)c3c(Nc4ccc(I)cc4F)n(C)c(=O)c(C)c32)c1 [Trametinib]; conditions: max 1 µM
Outline: as §1

Paclitaxel = compound: CC(=O)O[C@H]1C(=O)[C@@]2(C)[C@H]([C@H](OC(=O)c3ccccc3)[C@]3(O)C[C@H](OC(=O)[C@H](O)[C@@H](NC(=O)c4ccccc4)c4ccccc4)C(C)=C1C3(C)C)[C@]1(OC(C)=O)CO[C@@H]1C[C@@H]2O [Paclitaxel]; conditions: max 3 µM
Outline: as §1

Palbociclib = compound: CC(=O)c1c(C)c2cnc(Nc3ccc(N4CCNCC4)cn3)nc2n(C2CCCC2)c1=O [Palbociclib]; conditions: max 10 µM
Outline: as §1

AZD1390 = compound: CC(C)n1c(=O)n(C)c2cnc3cc(F)c(-c4ccc(OCCCN5CCCCC5)nc4)cc3c21 [AZD1390]; conditions: max 0.3 µM
Outline: as §1

Venetoclax = compound: CC1(C)CCC(CN2CCN(c3ccc(C(=O)NS(=O)(=O)c4ccc(NCC5CCOCC5)c([N+](=O)[O-])c4)c(Oc4cnc5[nH]ccc5c4)c3)CC2)=C(c2ccc(Cl)cc2)C1 [Venetoclax]; conditions: max 1 µM
Outline: as §1

Dasatinib = compound: CC1=C(C(=CC=C1)Cl)NC(=O)C2=CN=C(S2)NC3=CC(=NC(=N3)C)N4CCN(CC4)CCO [Dasatinib]; conditions: max 2 µM
Outline: as §1

SG3199 = compound: CC1=CN2[C@@H](C1)C=NC3=CC(=C(C=C3C2=O)OC)OCCCCCOC4=C(C=C5C(=C4)N=C[C@@H]6CC(=CN6C5=O)C)OC [SG3199]; conditions: max 0.001 µM
Outline: as §1

AZD2811 = compound: CCN(CCO)CCCOc1ccc2c(Nc3cc(CC(=O)Nc4cccc(F)c4)[nH]n3)ncnc2c1 [AZD2811]; conditions: max 1 µM
Outline: as §1

SN-38 = compound: CCc1c2c(nc3ccc(O)cc13)-c1cc3c(c(=O)n1C2)COC(=O)[C@]3(O)CC [SN-38]; conditions: max 0.3 µM
Outline: as §1

AZD0156 = compound: CN(C)CCCOc1ccc(-c2ccc3ncc4c(c3c2)n(C2CCOCC2)c(=O)n4C)cn1 [AZD0156]
Outline: as §1

AZD4320 = compound: CN(CC[C@H](CSC1=CC=CC=C1)NC2=C(C=C(C=C2)S(=O)(=O)NC(=O)C3=CC=C(C=C3)N4CCC(CC4)[C@H](C5=CC=CC=C5C6=CC=C(C=C6)Cl)O)S(=O)(=O)C(F)(F)F)CCO [AZD4320]; conditions: max 1 µM
Outline: as §1

Alisertib = compound: COc1cc(Nc2ncc3c(n2)-c2ccc(Cl)cc2C(c2c(F)cccc2OC)=NC3)ccc1C(=O)O [Alisertib]; conditions: max 10 µM
Outline: as §1

Etoposide = compound: COc1cc([C@@H]2c3cc4c(cc3[C@@H](O[C@@H]3O[C@@H]5CO[C@@H](C)O[C@H]5[C@H](O)[C@H]3O)[C@H]3COC(=O)[C@H]23)OCO4)cc(OC)c1O [Etoposide]; conditions: max 10 µM
Outline: as §1

Gefitinib = compound: COc1cc2ncnc(Nc3ccc(F)c(Cl)c3)c2cc1OCCCN1CCOCC1 [Gefitinib]; conditions: max 10 µM
Outline: as §1

Prexasertib = compound: COc1cccc(OCCCN)c1-c1cc(Nc2cnc(C#N)cn2)n[nH]1 [Prexasertib]; conditions: max 1 µM
Outline: as §1

Doxorubicin = compound: COc1cccc2c1C(=O)c1c(O)c3c(c(O)c1C2=O)C[C@@](O)(C(=O)CO)C[C@@H]3O[C@H]1C[C@H](N)[C@H](O)[C@H](C)O1 [Doxorubicin]; conditions: max 1 µM
Outline: as §1

AZD5153 = compound: COc1nnc2ccc(N3CCC(c4ccc(OCCN5CCN(C)C(=O)[C@H]5C)cc4)CC3)nn12 [AZD5153]; conditions: max 1 µM
Outline: as §1

Lapatinib = compound: CS(=O)(=O)CCNCc1ccc(-c2ccc3ncnc(Nc4ccc(OCc5cccc(F)c5)c(Cl)c4)c3c2)o1 [Lapatinib]; conditions: max 10 µM
Outline: as §1

AZD8186 = compound: C[C@@H](Nc1cc(F)cc(F)c1)c1cc(C(=O)N(C)C)cc2c(=O)cc(N3CCOCC3)oc12 [AZD8186]
Outline: as §1

Crizotinib = compound: C[C@@H](Oc1cc(-c2cnn(C3CCNCC3)c2)cnc1N)c1c(Cl)ccc(F)c1Cl [Crizotinib]; conditions: max 10 µM
Outline: as §1

Savolitinib = compound: C[C@@H](c1ccc2nccn2c1)n1nnc2ncc(-c3cnn(C)c3)nc21 [Savolitinib]; conditions: max 1 µM
Outline: as §1

AZD6738 = compound: C[C@@H]1COCCN1C2=NC(=NC(=C2)C3(CC3)[S@](=N)(=O)C)C4=C5C=CNC5=NC=C4 [AZD6738]; conditions: max 10 µM
Outline: as §1

AZD5991 = compound: Cc1c2c(nn1C)CSCc1cc(n(C)n1)CSc1cc(c3ccccc3c1)OCCCc1c(C(=O)O)n(C)c3c-2c(Cl)ccc13 [AZD5991]; conditions: max 1 µM
Outline: as §1

AZD7648 = compound: Cc1cc2ncnn2cc1Nc1ncc2c(n1)n(C1CCOCC1)c(=O)n2C [AZD7648]; conditions: max 10 µM
Outline: as §1

Taselisib = compound: Cc1nc(-c2cn3c(n2)-c2ccc(-c4cnn(C(C)(C)C(N)=O)c4)cc2OCC3)n(C(C)C)n1 [Taselisib]; conditions: max 10 µM
Outline: as §1

Selumetinib = compound: Cn1cnc2c(F)c(Nc3ccc(Br)cc3Cl)c(C(=O)NOCCO)cc21 [Selumetinib]; conditions: max 10 µM
Outline: as §1

SRA737 = compound: N#Cc1cnc(Nc2cc(NC[C@H]3CNCCO3)c(C(F)(F)F)cn2)cn1 [SRA737]; conditions: max 10 µM
Outline: as §1

MK-2206 = compound: NC1(c2ccc(-c3nc4ccn5c(=O)[nH]nc5c4cc3-c3ccccc3)cc2)CCC1 [MK-2206]; conditions: max 10 µM
Outline: as §1

Gemcitabine = compound: Nc1ccn([C@@H]2O[C@H](CO)[C@@H](O)C2(F)F)c(=O)n1 [Gemcitabine]; conditions: max 0.3 µM
Outline: as §1

[1] = compound: O=C(Nc1ccc2[nH]nc(-c3ccncc3)c2c1)[C@@H]1CCN(CC(=O)N2CCN(c3ccc(-c4ncccn4)cc3)CC2)C1; conditions: max 5 µM
Outline: as §1

Olaparib = compound: O=C(c1cc(Cc2n[nH]c(=O)c3ccccc23)ccc1F)N1CCN(C(=O)C2CC2)CC1 [Olaparib]; conditions: max 10 µM
Outline: as §1

5-Fluorouracil = compound: O=c1[nH]cc(F)c(=O)[nH]1 [5-Fluorouracil]; conditions: max 20 µM
Outline: as §1

Capivasertib = compound: C1CN(CCC1(C(=O)N[C@@H](CCO)C2=CC=C(C=C2)Cl)N)C3=NC=NC4=C3C=CN4 [Capivasertib]; conditions: max 10 µM
Outline: as §1

Cell Line	IC50, cell viability 72 h (Carboplatin) [µM]	IC50, cell viability 72 h (AZD5363) [µM]	IC50, cell viability 72 h (AZD1775; max 3 µM) [µM]	IC50, cell viability 72 h (Trametinib) [µM]	IC50, cell viability 72 h (Paclitaxel) [µM]	IC50, cell viability 72 h (Palbociclib) [µM]	IC50, cell viability 72 h (AZD1390) [µM]	IC50, cell viability 72 h (Venetoclax) [µM]	IC50, cell viability 72 h (Dasatinib) [µM]	IC50, cell viability 72 h (SG3199) [µM]	IC50, cell viability 72 h (AZD2811) [µM]	IC50, cell viability 72 h (SN-38) [µM]	IC50, cell viability 72 h (AZD0156; max 3 µM) [µM]	IC50, cell viability 72 h (AZD4320) [µM]	IC50, cell viability 72 h (Alisertib) [µM]	IC50, cell viability 72 h (Etoposide) [µM]	IC50, cell viability 72 h (Gefitinib) [µM]	IC50, cell viability 72 h (Prexasertib) [µM]	IC50, cell viability 72 h (Doxorubicin) [µM]	IC50, cell viability 72 h (AZD5153) [µM]	IC50, cell viability 72 h (Lapatinib) [µM]	IC50, cell viability 72 h (AZD8186; max 10 µM) [µM]	IC50, cell viability 72 h (Crizotinib) [µM]	IC50, cell viability 72 h (Savolitinib) [µM]	IC50, cell viability 72 h (AZD6738) [µM]	IC50, cell viability 72 h (AZD5991) [µM]	IC50, cell viability 72 h (AZD7648) [µM]	IC50, cell viability 72 h (Taselisib) [µM]	IC50, cell viability 72 h (Selumetinib) [µM]	IC50, cell viability 72 h (SRA737) [µM]	IC50, cell viability 72 h (MK-2206) [µM]	IC50, cell viability 72 h (Gemcitabine) [µM]	IC50, cell viability 72 h [1] [µM]	IC50, cell viability 72 h (Olaparib) [µM]	IC50, cell viability 72 h (5-Fluorouracil) [µM]	IC50, cell viability 72 h (AZD1775; max 1 µM) [µM]	IC50, cell viability 72 h (AZD0156; max 1 µM) [µM]	IC50, cell viability 72 h (Capivasertib) [µM]	IC50, cell viability 72 h (AZD8186; max 3 µM) [µM]
EW-7 (Ewing's Sarcoma)	> 10	4.5	0.308	> 1	0.0408	> 10	> 0.3	> 1	> 2	> 0.001	> 1	0.00552	> 3	0.943	2.15	0.253	> 10	0.00528	0.101	> 1	> 10	> 10	3.46	> 1	1.16	> 1	9.44	0.155	> 10	0.908	5.63	0.0047	> 5	> 10	> 20	–	–	–	–
KP-N-YN (Neuroblastoma)	> 10	> 10	–	> 1	0.11	> 10	> 0.3	0.344	> 2	> 0.001	0.402	0.035	–	0.0492	1.09	> 10	> 10	0.00536	0.749	> 1	> 10	> 10	> 10	> 1	0.751	> 1	> 10	5.58	> 10	0.751	> 10	–	> 5	> 10	> 20	0.307	> 1	–	–
MKN1 (Gastric Carcinoma)	> 10	> 10	0.64	> 1	0.0134	> 10	> 0.3	> 1	0.56	–	> 1	0.124	> 3	> 1	–	1.25	> 10	–	–	0.343	> 10	> 10	> 10	> 1	2.87	> 1	> 10	0.573	> 10	4.85	> 10	0.161	> 5	> 10	> 20	–	–	–	–
NB13 (Neuroblastoma)	> 10	–	–	> 1	–	> 10	> 0.3	> 1	> 2	> 0.001	> 1	0.0137	–	0.139	0.244	2.43	> 10	0.0159	0.194	0.953	> 10	–	3.97	> 1	2.22	> 1	> 10	> 10	> 10	3.64	> 10	> 0.3	> 5	> 10	> 20	0.322	> 1	> 10	> 3
NCI-H841 (Small Cell Lung Carcinoma)	> 10	> 10	1.69	> 1	0.0266	> 10	> 0.3	> 1	> 2	–	> 1	> 0.3	> 3	> 1	–	> 10	> 10	–	–	> 1	> 10	> 10	> 10	> 1	> 10	> 1	> 10	> 10	> 10	> 10	> 10	> 0.3	> 5	> 10	> 20	–	–	–	–
UACC-812 (Breast Carcinoma)	> 10	> 10	> 3	> 1	1.92	> 10	> 0.3	> 1	> 2	> 0.001	> 1	> 0.3	> 3	> 1	> 10	9.33	> 10	0.851	> 1	> 1	7.47	> 10	> 10	> 1	> 10	> 1	> 10	> 10	> 10	> 10	–	> 0.3	> 5	> 10	> 20	–	–	–	–
